Experimental data taken from patent US8729082B2, “Substituted imidazoquinoxalines” (Bayer Intellectual Property GmbH, priority 2009, dated 2014).

These molecules were tested against T1, human kinase Mps-1 (Homo sapiens, UniProt P33981) (assay: Mps-1 kinase assay (HTRF)). Conditions: lowATP; mean; read-out: Mps1 lowATP mean IC50.
T1 construct: N-terminally GST-tagged human full length recombinant Mps-1 kinase; purchased Invitrogen, Karslruhe, Germany PV4071
T1 sequence (P33981 1-857): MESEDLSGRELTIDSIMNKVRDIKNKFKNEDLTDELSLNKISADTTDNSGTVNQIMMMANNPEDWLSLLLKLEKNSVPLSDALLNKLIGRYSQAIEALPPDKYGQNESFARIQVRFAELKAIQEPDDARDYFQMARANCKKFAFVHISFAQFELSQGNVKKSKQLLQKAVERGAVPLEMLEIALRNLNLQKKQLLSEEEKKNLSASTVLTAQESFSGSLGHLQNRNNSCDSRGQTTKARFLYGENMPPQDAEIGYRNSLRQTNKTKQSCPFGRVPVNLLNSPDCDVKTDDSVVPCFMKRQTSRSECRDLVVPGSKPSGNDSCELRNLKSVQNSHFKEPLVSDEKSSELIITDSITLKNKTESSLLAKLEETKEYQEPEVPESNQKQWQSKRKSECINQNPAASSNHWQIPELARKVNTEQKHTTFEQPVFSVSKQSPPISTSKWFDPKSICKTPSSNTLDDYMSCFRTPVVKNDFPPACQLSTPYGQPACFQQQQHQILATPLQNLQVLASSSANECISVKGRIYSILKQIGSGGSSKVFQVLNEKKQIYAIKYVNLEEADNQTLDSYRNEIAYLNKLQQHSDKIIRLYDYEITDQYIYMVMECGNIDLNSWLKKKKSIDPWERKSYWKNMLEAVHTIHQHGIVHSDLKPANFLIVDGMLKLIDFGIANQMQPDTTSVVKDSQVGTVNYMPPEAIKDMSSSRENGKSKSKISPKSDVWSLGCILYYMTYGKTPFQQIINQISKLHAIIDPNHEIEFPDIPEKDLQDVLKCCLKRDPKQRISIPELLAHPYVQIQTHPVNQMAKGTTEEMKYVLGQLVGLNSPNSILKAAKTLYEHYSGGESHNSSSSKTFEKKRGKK
Assay type: biochemical
Description: The human kinase Mps-1 phosphorylates a biotinylated substrate peptide. Detection of the phosphorylated product is achieved by homogenous time-resolved fluorescence resonance energy transfer (HTRF) from Europium-labelled anti-phospho-Serine/Threonine antibody as donor to streptavidin labelled with cross-linked allophycocyanin (SA-XLent) as acceptor. Compounds are tested for their inhibition of the kinase activity.
N-terminally GST-tagged human full length recombinant Mps-1 kinase (purchased from Invitrogen, Karslruhe, Germany, cat. no PV4071) was used. As substrate for the kinase reaction a biotinylated peptide of the amino-acid sequence PWDPDDADITEILG (C-terminus in amide form, purchased from Biosynthan GmbH, Berlin) was used.
For the assay 50 nl of a 100-fold concentrated solution of the test compound in DMSO was pipetted into a black low volume 384 well microtiter plate (Greiner Bio-One, Frickenhausen, Germany), 2 μl of a solution of Mps-1 in assay buffer [0.1 mM sodium-ortho-vanadate, 10 mM MgCl2, 2 mM DTT, 25 mM Hepes pH 7.7, 0.05% BSA, 0.001% Pluronic F-127] were added and the mixture was incubated for 15 min at 22° C. to allow pre-binding of the test compounds to Mps-1 before the start of the kinase reaction. Then the kinase reaction was started by the addition of 3 μl of a solution of 16.7 μM ATP and 1.67 μM peptide in assay buffer and the resulting mixture was incubated for a reaction time of 60 min at 22° C. The concentration of Mps-1 in the assay was adjusted to the activity of the enzyme lot and was chosen appropriate to have the assay in the linear range, typical enzyme concentrations were in the range of about 1 nM (final conc. in the 5 μl assay volume). The reaction was stopped by the addition of 3 μl of a solution of HTRF detection reagents (100 mM Hepes pH 7.4, 0.1% BSA, 40 mM EDTA, 140 nM Streptavidin-XLent [#61GSTXLB, Fa. Cis Biointernational, Marcoule, France], 1.5 nM anti-phospho(Ser/Thr)-Europium-antibody [#AD0180, PerkinElmer LAS, Rodgau-Jügesheim, Germany].
The resulting mixture was incubated 1 h at 22° C. to allow the binding of the phosphorylated peptide to the anti-phospho(Ser/Thr)-Europium-antibody. Subsequently the amount of phosphorylated substrate was evaluated by measurement of the resonance energy transfer from the Europium-labelled anti-phospho(Ser/Thr) antibody to the Streptavidin-XLent. Therefore, the fluorescence emissions at 620 nm and 665 nm after excitation at 350 nm was measured in a HTRF reader, e.g. a Rubystar (BMG Labtechnologies, Offenburg, Germany) or a Viewlux (PerkinElmer LAS, Rodgau-Jügesheim, Germany). The ratio of the emissions at 665 nm and at […] was taken as the measure for the amount of phosphorylated substrate. The data were normalised (enzyme reaction without inhibitor=0% inhibition, all other assay components but no enzyme=100% inhibition).
In the case of `CC(C)CNc1nc2ccccc2n2c(-c3ccc4c(c3)OCO4)cnc12` [Example 1-28, 1-(1,3-benzodioxol-5-yl)-N-(2-methylpropyl)imidazo[1,2-a]quinoxalin-4-amine], the IC50 is reported as 9.9 µM.
`CCOc1ccc(-c2cnc3c(NCC(C)C)nc4ccccc4n23)cc1` [Example 1-29, 1-(4-ethoxyphenyl)-N-(2-methylpropyl)imidazo[1,2-a]quinoxalin-4-amine] gave an IC50 of 4.98 µM.
For `COc1ccc(-c2cnc3c(NCC(C)C)nc4ccccc4n23)c(C)c1` [Example 1-30, 1-(4-methoxy-2-methylphenyl)-N-(2-methylpropyl)imidazo[1,2-a]quinoxalin-4-amine], the IC50 was 15.3 µM.
`CC(C)CNc1nc2ccccc2n2c(-c3cccc(F)c3F)cnc12` [Example 1-31, 1-(2,3-difluorophenyl)-N-(2-methylpropyl)imidazo[1,2-a]quinoxalin-4-amine] gave an IC50 of 16.3 µM.
`CC(C)CNc1nc2ccccc2n2c(-c3cccnc3)cnc12` [Example 1-32, N-(2-methylpropyl)-1-(pyridin-3-yl)imidazo[1,2-a]quinoxalin-4-amine] showed an IC50 of 18.9 µM.
`COc1ccc(-c2cnc3c(NCC(C)C)nc4ccccc4n23)cc1F` [Example 1-33, 1-(3-fluoro-4-methoxyphenyl)-N-(2-methylpropyl)imidazo[1,2-a]quinoxalin-4-amine] showed an IC50 of 1.76 µM.
Work on `CC(C)CNc1nc2ccccc2n2c(-c3ccncc3)cnc12` [Example 1-34, N-(2-methylpropyl)-1-(pyridin-4-yl)imidazo[1,2-a]quinoxalin-4-amine] yielded an IC50 of 11.9 µM.
`CC(C)CNc1nc2ccccc2n2c(-c3ccccc3O)cnc12` [Example 1-35, 2-{4-[(2-methylpropyl)amino]imidazo[1,2-a]quinoxalin-1-yl}phenol] gave an IC50 of 4.62 µM.
Molecule `CC(C)CNc1nc2ccccc2n2c(-c3cccc(O)c3)cnc12` [Example 1-36, 3-{4-[(2-methylpropyl)amino]imidazo[1,2-a]quinoxalin-1-yl}phenol] has an IC50 of 18.6 µM.
`CC(C)CNc1nc2ccccc2n2c(-c3ccc(O)cc3)cnc12` [Example 1-37, 4-{4-[(2-methylpropyl)amino]imidazo[1,2-a]quinoxalin-1-yl}phenol] showed an IC50 of 0.301 µM.
For `Cc1ccc(-c2cnc3c(NCC(C)C)nc4ccccc4n23)s1` [Example 1-38, N-(2-methylpropyl)-1-(5-methylthiophen-2-yl)imidazo[1,2-a]quinoxalin-4-amine], the IC50 was 6.05 µM.
`CC(C)CNc1nc2ccccc2n2c(-c3ccc4[nH]ccc4c3)cnc12` [Example 1-39, 1-(1H-indol-5-yl)-N-(2-methylpropyl)imidazo[1,2-a]quinoxalin-4-amine] was tested, and the IC50 was 8.86 µM.
With `CC(C)CNc1nc2ccccc2n2c(-c3ccc(S(C)(=O)=O)cc3)cnc12` [Example 1-40, N-(2-methylpropyl)-1-[4-(methylsulfonyl)phenyl]imidazo[1,2-a]quinoxalin-4-amine] the IC50 was 17.4 µM.
`CC(C)CNc1nc2ccccc2n2c(-c3cc(F)ccc3F)cnc12` [Example 1-41, 1-(2,5-difluorophenyl)-N-(2-methylpropyl)imidazo[1,2-a]quinoxalin-4-amine] showed an IC50 of 10.6 µM.
Molecule `Cc1ccc(-c2cnc3c(NCC(C)C)nc4ccccc4n23)c(F)c1` [Example 1-42, 1-(2-fluoro-4-methylphenyl)-N-(2-methylpropyl)imidazo[1,2-a]quinoxalin-4-amine] has an IC50 of 5.91 µM.
`CC(C)CNc1nc2ccccc2n2c(-c3cc[nH]n3)cnc12` [Example 1-43, N-(2-methylpropyl)-1-(1H-pyrazol-3-yl)imidazo[1,2-a]quinoxalin-4-amine] gave an IC50 of 10.4 µM.
For `CC(=O)NCc1cccc(-c2cnc3c(NCC(C)C)nc4ccccc4n23)c1` [Example 1-44, N-(3-{4-[(2-methylpropyl)amino]imidazo[1,2-a]quinoxalin-1-yl}benzyl)acetamide], the IC50 was 11.5 µM.
In the case of `Cc1ccc(-c2cnc3c(NCC(C)C)nc4ccccc4n23)cn1` [Example 1-45, N-(2-methylpropyl)-1-(6-methylpyridin-3-yl)imidazo[1,2-a]quinoxalin-4-amine], the IC50 is reported as 8.19 µM.
`CNC(=O)c1ccc(-c2cnc3c(NCC(C)C)nc4ccccc4n23)cc1Cl` [Example 1-46, 2-chloro-N-methyl-4-{4-[(2-methylpropyl)amino]imidazo[1,2-a]quinoxalin-1-yl}benzamide] showed an IC50 of 2.42 µM.
`CC(C)CNc1nc2ccccc2n2c(-c3ccc(C(=O)NC4CC4)c(Cl)c3)cnc12` [Example 1-47, 2-chloro-N-cyclopropyl-4-{4-[(2-methylpropyl)amino]imidazo[1,2-a]quinoxalin-1-yl}benzamide] gave an IC50 of 0.367 µM.
Molecule `CC(C)CNc1nc2ccccc2n2c(-c3ccc4[nH]ncc4c3)cnc12` [Example 1-48, 1-(1H-indazol-5-yl)-N-(2-methylpropyl)imidazo[1,2-a]quinoxalin-4-amine] has an IC50 of 4.53 µM.
`CC(C)CNc1nc2ccccc2n2c(-c3ccc4cn[nH]c4c3)cnc12` [Example 1-49, 1-(1H-indazol-6-yl)-N-(2-methylpropyl)imidazo[1,2-a]quinoxalin-4-amine] showed an IC50 of 6.46 µM.
With `CNC(=O)c1ccc(-c2cnc3c(NCC(C)C)nc4ccccc4n23)cn1` [Example 1-50, N-methyl-5-{4-[(2-methylpropyl)amino]imidazo[1,2-a]quinoxalin-1-yl}pyridine-2-carboxamide] the IC50 was 0.416 µM.
Molecule `O=C(NC1CC1)c1ccc(-c2cnc3c(NCCO)nc4ccccc4n23)cc1` [Example 2-1, N-cyclopropyl-4-[4-(2-hydroxy-ethylamino)-imidazo[1,2-a]quinoxalin-1-yl]-benzamide] has an IC50 of 0.113 µM.
With `O=C(NC1CC1)c1ccc(-c2cnc3c(NCCCN4CCOCC4)nc4ccccc4n23)cc1` [Example 2-2, N-cyclopropyl-4-(4-{[3-(morpholin-4-yl)propyl]amino}imidazo[1,2-a]quinoxalin-1-yl)benzamide] the IC50 was 0.396 µM.
Molecule `CC(C)CCNc1nc2ccccc2n2c(-c3ccc(C(=O)NC4CC4)cc3)cnc12` [Example 2-3, N-cyclopropyl-4-{4-[(3-methylbutyl)amino]imidazo[1,2-a]quinoxalin-1-yl}benzamide] has an IC50 of 0.034 µM.
`Cc1cccc(CNc2nc3ccccc3n3c(-c4ccc(C(=O)NC5CC5)cc4)cnc23)c1` [Example 2-4, N-cyclopropyl-4-{4-[(3-methylbenzyl)amino]imidazo[1,2-a]quinoxalin-1-yl}benzamide] gave an IC50 of 0.132 µM.
Work on `O=C(NC1CC1)c1ccc(-c2cnc3c(NCc4cccc(F)c4)nc4ccccc4n23)cc1` [Example 2-5, N-cyclopropyl-4-{4-[(3-fluorobenzyl)amino]imidazo[1,2-a]quinoxalin-1-yl}benzamide] yielded an IC50 of 0.09 µM.
`Cc1ccccc1CNc1nc2ccccc2n2c(-c3ccc(C(=O)NC4CC4)cc3)cnc12` [Example 2-6, N-cyclopropyl-4-{4-[(2-methylbenzyl)amino]imidazo[1,2-a]quinoxalin-1-yl}benzamide] was tested, and the IC50 was 0.232 µM.
